The test system of test [1] is H929 multiple myeloma tumour line. In words: In vitro cytotoxicity, Microculture Tetrazolium Assay. Format: cell-based. The procedure: The cytotoxicity studies were carried out on the H929 multiple myeloma tumour line.
The cells are distributed onto microplates and exposed to the test compounds for 48 hours.

In another test the target is Mcl-1 protein (UniProtKB primary accession number: Q07820) (Homo sapiens, UniProt Q07820). In words: Inhibition of Mcl-1 by fluorescence polarisation, Method 1. The class given is binding. To be noted: read-out: IC50 (M) Mcl-1 FP. In outline:
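FP competition, 11-point compound titration in 5% final DMSO; protein and labelled probe at 5 nM and 1 nM final in HEPES/NaCl/Tween 20 buffer, pH 7.4.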
(Fluorescence polarisation rises when a labelled molecule tumbles more slowly, as on binding a larger partner.)

[2] abbreviates: Homo sapiens, NCI-H929, 48 h, H929 cells, 48 hours exposure, MTT, read-out: IC50 (μM) MTT H929.
[3] abbreviates: fluorescence polarisation, Method 1, or Method 2.
The mark [4] stands for this setting: H929 cells, 48 hours exposure, MTT, read-out: IC50 (μM) MTT H929.
Setting [5] is: fluorescence polarisation test, Method 2 values are underlined in the patent (underlining not visible here).

Read-outs that look alike come from different tables or passages of the source.

Chain of Mcl-1 protein (Q07820 whole entry): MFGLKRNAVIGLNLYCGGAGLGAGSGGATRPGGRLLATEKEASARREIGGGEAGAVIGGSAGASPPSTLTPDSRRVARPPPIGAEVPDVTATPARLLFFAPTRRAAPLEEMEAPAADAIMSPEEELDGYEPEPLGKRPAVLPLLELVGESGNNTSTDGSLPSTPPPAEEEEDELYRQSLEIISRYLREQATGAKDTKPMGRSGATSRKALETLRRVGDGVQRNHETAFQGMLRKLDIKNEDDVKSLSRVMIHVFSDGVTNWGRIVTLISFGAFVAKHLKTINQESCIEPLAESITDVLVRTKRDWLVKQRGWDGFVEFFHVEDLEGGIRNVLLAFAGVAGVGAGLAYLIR

One may read the IC50 as the midpoint of a concentration-inhibition curve. Turning to `COc1ccccc1CC(Oc1ncnc2sc(-c3cc(F)c(F)c(F)c3)c(-c3ccc(OCCN4CCN(C)CC4)c(Cl)c3C)c12)C(=O)O` [Example 523, (2R)-2-{[(5Sa)-5-{3-chloro-2-methyl-4-[2-(4-methylpiperazin-1-yl)ethoxy]phenyl}-6-(3,4,5-trifluorophenyl)thieno[2,3-d]pyrimidin-4-yl]oxy}-3-(2-methoxyphenyl)propanoic acid], the results for the IC50 (in test [1] (setting [2]); on Mcl-1 protein (setting [3])) were 0.532 µM and 1.8e-09 M, respectively.
As for `CCc1sc2ncnc(OC(Cc3ccccc3)C(=O)O)c2c1-c1ccc(OCCCN2CCN(C)CC2)c(Cl)c1C` [Example 402, (2R)-2-[((5Sa)-5-{3-chloro-2-methyl-4-[3-(4-methylpiperazin-1-yl)propoxy]phenyl}-6-ethylthieno[2,3-d]pyrimidin-4-yl)oxy]-3-phenylpropanoic acid], the IC50 in test [1] (setting [2]) came out at 10.4 µM; on Mcl-1 protein (setting [3]) it was 6.6e-08 M.
Turning to `COc1ccccc1CC(Oc1ncnc2sc(-c3ccccc3)c(-c3ccc(OCCN4CCN(C)CC4)c(Cl)c3C)c12)C(=O)O` [Example 564, (2R)-2-[((5Sa)-5-{3-chloro-2-methyl-4-[2-(4-methylpiperazin-1-yl)ethoxy]phenyl}-6-phenylthieno[2,3-d]pyrimidin-4-yl)oxy]-3-(2-methoxyphenyl)propanoic acid], the IC50 in test [1] (setting [2]) was 0.202 µM; on Mcl-1 protein (setting [3]), 8.5e-10 M.
On the same counts, the results for `COc1ccccc1-c1nccc(COc2ccccc2CC(Oc2ncnc3sc(-c4ccc(OCc5cccc(C)c5)cc4)c(-c4ccc(OCCN5CCN(C)CC5)c(Cl)c4C)c23)C(=O)O)n1` [Example 773, (2R)-2-[((5Sa)-5-{3-chloro-2-methyl-4-[2-(4-methylpiperazin-1-yl)ethoxy]phenyl}-6-{4-[(3-methylbenzyl)oxy]phenyl}thieno[2,3-d]pyrimidin-4-yl)oxy]-3-(2-{[2-(2-methoxyphenyl)pyrimidin-4-yl]methoxy}phenyl)propanoic acid] are 0.017 µM and 1.25e-09 M.
`COc1ccccc1C[C@@H](Oc1ncnc2sc(-c3cccc(F)c3F)c(-c3ccc(C#CCN4CCN(C)CC4)c(Cl)c3C)c12)C(=O)O` (single isomer, unassigned) [Example 717]: the IC50 is 0.865 µM in test [1] (Homo sapiens, NCI-H929, 48 h, read-out: IC50 (μM) MTT H929, H929 cells, 48 hours exposure, MTT) and 2.7e-08 M on Mcl-1 protein (setting [3]).
On to `COc1ccccc1CC(Oc1ncnc2sc(-c3ccco3)c(-c3ccc(OC4CN5CCC4CC5)c(Cl)c3C)c12)C(=O)O` (single isomer, unassigned) [Example 308, (2R)-2-({(5Sa)-5-[4-((3R or S)-1-azabicyclo[2.2.2]oct-3-yloxy)-3-chloro-2-methylphenyl]-6-(furan-2-yl)thieno[2,3-d]pyrimidin-4-yl}oxy)-3-(2-methoxyphenyl)propanoic acid], for which the IC50 in test [1] (setting [4]) was found to be 1.5 µM; on Mcl-1 protein (setting [5]) it was 5.9e-09 M.
As to `COc1ccccc1C[C@@H](Oc1ncnc2sc(-c3ccc(F)c(F)c3)c(-c3ccc(OCCN4CCN(C)CC4)c(Cl)c3C)c12)C(=O)O` [Example 533, (2R)-2-{[(5Sa)-5-{3-chloro-2-methyl-4-[2-(4-methylpiperazin-1-yl)ethoxy]phenyl}-6-(3,4-difluorophenyl)thieno[2,3-d]pyrimidin-4-yl]oxy}-3-(2-methoxyphenyl)propanoic acid], the IC50 in test [1] (setting [4]) was determined as 0.201 µM; at Mcl-1 protein (setting [3]), 2.8e-08 M.
In the case of `COc1ccccc1CC(Oc1ncnc2sc(-c3ccco3)c(-c3ccc(OCC4CN(C)CCN4C)c(Cl)c3C)c12)C(=O)O` [Example 313, (2R)-2-{[(5Sa)-5-{3-chloro-4-[(1,4-dimethylpiperazin-2-yl)methoxy]-2-methylphenyl}-6-(furan-2-yl)thieno[2,3-d]pyrimidin-4-yl]oxy}-3-(2-methoxyphenyl)propanoic acid], the IC50 was 0.886 µM in test [1] (setting [2]) and 1e-08 M at Mcl-1 protein (setting [5]).
With `COc1c(F)cccc1CC(Oc1ncnc2sc(-c3ccco3)c(-c3ccc(OCCN4CCN(C)CC4)c(Cl)c3C)c12)C(=O)O` [Example 352, (2R)-2-{[(5Sa)-5-{3-chloro-2-methyl-4-[2-(4-methylpiperazin-1-yl)ethoxy]phenyl}-6-(furan-2-yl)thieno[2,3-d]pyrimidin-4-yl]oxy}-3-(3-fluoro-2-methoxyphenyl)propanoic acid], the IC50 in test [1] (setting [2]) came out at 0.91 µM; on Mcl-1 protein (setting [5]), 1.4e-08 M.
`COc1ccccc1-c1nccc(COc2ccccc2CC(Oc2ncnc3sc(-c4ccc(OCCN5CCOCC5)cc4)c(-c4ccc(OCCN5CCN(C)CC5)c(Cl)c4C)c23)C(=O)O)n1` (single isomer, unassigned) [Example 764]: the IC50 in test [1] (setting [2]) came out at 0.019 µM; on Mcl-1 protein (setting [3]), 1.35e-09 M.
For `COc1ccccc1CC(Oc1ncnc2sc(-c3ccco3)c(-c3ccc(OCCN)c(Cl)c3C)c12)C(=O)O` [Example 319, (2R)-2-({(5Sa)-5-[4-(2-aminoethoxy)-3-chloro-2-methylphenyl]-6-(furan-2-yl)thieno[2,3-d]pyrimidin-4-yl}oxy)-3-(2-methoxyphenyl)propanoic acid], the figures for the IC50 (in test [1] (setting [2]); on Mcl-1 protein (setting [5])) were 0.834 µM and 1.5e-08 M, respectively.
As to `CCN(CC)CCOc1ccc(-c2c(-c3ccc(F)cc3)sc3ncnc(OC(Cc4ccccc4OCc4ccnc(-c5ccccc5F)n4)C(=O)O)c23)c(C)c1Cl` [Example 746, (2R)-2-{[(5Sa)-5-{3-chloro-4-[2-(diethylamino)ethoxy]-2-methylphenyl}-6-(4-fluorophenyl)thieno[2,3-d]pyrimidin-4-yl]oxy}-3-(2-{[2-(2-fluorophenyl)pyrimidin-4-yl]methoxy}phenyl)propanoic acid], the IC50 in test [1] (setting [2]) was determined as 0.111 µM; at Mcl-1 protein (setting [3]), 3.5e-09 M.
As for `COc1cc(F)ccc1CC(Oc1ncnc2sc(-c3ccco3)c(-c3ccc(OCCN4CCN(C)CC4)c(Cl)c3C)c12)C(=O)O` [Example 346, (2R)-2-{[(5Sa)-5-{3-chloro-2-methyl-4-[2-(4-methylpiperazin-1-yl)ethoxy]phenyl}-6-(furan-2-yl)thieno[2,3-d]pyrimidin-4-yl]oxy}-3-(4-fluoro-2-methoxyphenyl)propanoic acid], the IC50 in test [1] (setting [2]) was found to be 0.063 µM; on Mcl-1 protein (setting [5]) it was 1.7e-08 M.
In the case of `COc1ccccc1CC(Oc1ncnc2sc(-c3csc4ccsc34)c(-c3ccc(OCCN4CCN(C)CC4)c(Cl)c3C)c12)C(=O)O` [Example 571, (2R)-2-{[(5Sa)-5-{3-chloro-2-methyl-4-[2-(4-methylpiperazin-1-yl)ethoxy]phenyl}-6-(thieno[3,2-b]thiophen-3-yl)thieno[2,3-d]pyrimidin-4-yl]oxy}-3-(2-methoxyphenyl)propanoic acid], the IC50 was found to be 0.559 µM in test [1] (setting [2]) and 4.4e-08 M on Mcl-1 protein (setting [3]).
`CCc1sc2ncnc(OC(Cc3ccccc3F)C(=O)O)c2c1-c1ccc(OCCN2CCN(C)CC2)c(Cl)c1C` [Example 463, (2R)-2-[((5Sa)-5-{3-chloro-2-methyl-4-[2-(4-methylpiperazin-1-yl)ethoxy]phenyl}-6-ethylthieno[2,3-d]pyrimidin-4-yl)oxy]-3-(2-fluorophenyl)propanoic acid]: the results for the 50% inhibitory concentration (IC50) (in test [1] (setting [2]); at Mcl-1 protein (setting [3])) were 5.11 µM and 4.6e-08 M, respectively.
For `COc1ccccc1-c1nccc(COc2ccccc2CC(Oc2ncnc3sc(-c4ccc(OCc5ccccn5)cc4)c(-c4ccc(OCCN5CCN(C)CC5)c(Cl)c4C)c23)C(=O)O)n1` [Example 769, (2R)-2-[((5Sa)-5-{3-chloro-2-methyl-4-[2-(4-methylpiperazin-1-yl)ethoxy]phenyl}-6-[4-(pyridin-2-ylmethoxy)phenyl]thieno[2,3-d]pyrimidin-4-yl)oxy]-3-(2-{[2-(2-methoxyphenyl)pyrimidin-4-yl]methoxy}phenyl)propanoic acid], the IC50 in test [1] (setting [2]) came to 0.01 µM; at Mcl-1 protein (setting [3]), 9.48e-10 M.

The values are drawn from US9670227B2, “Thienopyrimidine derivatives, a process for their preparation and pharmaceutical compositions containing them” (LES LABORATOIRES SERVIER, priority 2013, dated 2017).
